For the experiment, the target named is T1, AR protein in VCaP cells (Homo sapiens, UniProt P10275).
T1 construct: endogenous in cells; host or cells: VCaP cells
T1 sequence (P10275 1-920): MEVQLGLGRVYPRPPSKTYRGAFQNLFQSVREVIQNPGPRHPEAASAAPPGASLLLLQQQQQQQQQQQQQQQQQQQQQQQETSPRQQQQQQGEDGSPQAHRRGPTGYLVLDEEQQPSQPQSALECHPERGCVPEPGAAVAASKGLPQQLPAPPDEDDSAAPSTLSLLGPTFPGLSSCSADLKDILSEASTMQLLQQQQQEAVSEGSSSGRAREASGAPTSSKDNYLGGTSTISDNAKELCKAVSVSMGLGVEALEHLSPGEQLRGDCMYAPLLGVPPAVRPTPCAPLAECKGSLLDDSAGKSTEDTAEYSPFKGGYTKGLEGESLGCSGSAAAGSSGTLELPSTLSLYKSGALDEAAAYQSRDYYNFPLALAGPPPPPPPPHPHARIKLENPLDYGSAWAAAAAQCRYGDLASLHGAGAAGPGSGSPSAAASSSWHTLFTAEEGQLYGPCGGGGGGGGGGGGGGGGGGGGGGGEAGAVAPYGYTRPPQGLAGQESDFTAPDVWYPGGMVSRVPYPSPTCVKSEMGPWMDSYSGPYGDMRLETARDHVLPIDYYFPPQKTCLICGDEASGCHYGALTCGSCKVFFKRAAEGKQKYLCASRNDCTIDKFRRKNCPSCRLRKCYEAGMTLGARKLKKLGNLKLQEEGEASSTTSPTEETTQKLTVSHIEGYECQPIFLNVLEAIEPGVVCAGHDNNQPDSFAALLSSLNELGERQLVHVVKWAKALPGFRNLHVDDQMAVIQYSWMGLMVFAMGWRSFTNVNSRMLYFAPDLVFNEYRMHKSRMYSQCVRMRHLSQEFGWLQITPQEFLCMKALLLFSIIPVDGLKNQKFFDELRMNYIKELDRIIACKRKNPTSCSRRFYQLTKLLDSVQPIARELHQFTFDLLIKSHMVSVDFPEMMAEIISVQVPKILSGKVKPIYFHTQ
Kind of experiment: VCAP AR Degradation Assay (AR ELISA, 24 h). The class given is cell-based. The following applies: for Y (lowest measured AR level normalized to DMSO control): AR degradation efficiency; for DC50: concentration of compound when AR level = 50% of DMSO control. The procedure:
VCAP AR Degradation Assay.
Test compounds were pre-dispensed into a Corning CellBind 96-well clear bottom plate (Cat #3300) using an acoustic dispenser to make a 10-point concentration series at 1:3 dilution for each compound. The final top concentration of each compound was […]. DMSO at a final concentration of 0.1% was used as a control. VCaP cells cultured in DMEM with 8% fetal bovine serum (FBS) were seeded at 50K cells per well in a 200 μL volume into the compound plate and incubated at 37° C. in a CO2 incubator for 24 h. The medium was carefully removed from the cells and the plate was placed on ice. One hundred […] of ice-cold 1× cell lysis buffer from Cell Signaling Technologies (Cat #9803) was added to each well of the cells and the plate was incubated at 4° C. on a shaker for 1 h. Fifteen […] of cell lysate was used for AR ELISA detection using a PathScan Total Sandwich AR ELISA kit (Cell Signaling Technology, Cat #12580). AR levels in compound-treated wells were normalized to that of DMSO control and expressed as percent of control (PoC) (y). A Four Parameter Logistic Model (Sigmoidal Dose-Response Model) was used to determine the compound's DC50, and EC50, using the following equation: y=(A+((B−A)/(1+((C/x)^D)))) • A=YMin (lowest AR level normalized to DMSO control in response to compound • treatment, as determined by curve fit) • B=YMax (maximum AR level as determined by curve fit) • C=EC50 • D=Hill Slope • x=compound concentration • EC50=the concentration of compound when y=(YMax−YMin)/2 • DC50=the concentration of the compound when y=50% of DMSO control (50% AR degradation) • y=AR protein level normalized to DMSO control
The lowest measured AR level normalized to DMSO control in response to compound treatment, termed Y value, was used to characterize the compound-mediated AR degradation efficiency.
On the technique in general: ELISA stands for enzyme-linked immunosorbent assay.

Like-named read-outs stand apart in the source and are kept apart here.

In the case of `CCc1cc(N2C(=S)N(c3cnc(C#N)c(C(F)(F)F)c3)C(=O)C2(C)C)ccc1OCCC1CCN(CC(=O)Nc2cc(Cl)cc(NC3CCC(=O)NC3=O)c2)CC1` (stereo not drawn) [Cmpd 13, N-(3-chloro-5-(2,6-dioxopiperidin-3-ylamino)phenyl)-2-(4-(2-(4-(3-(6-cyano-5-(trifluoromethyl)pyridin-3-yl)-5,5-dimethyl-4-oxo-2-thioxoimidazolidin-1-yl)-2-ethylphenoxy)ethyl)piperidin-1-yl)acetamide], the “Y (lowest measured AR level normalized to DMSO control)” value was “* (0<Y<=25%)”. Further, the DC50 (in general, the midpoint of the concentration-degradation curve) (read-out: DC50) is under 100 nM.

Regarding `CCc1cc(N2C(=S)N(c3ccc(C#N)c(C(F)(F)F)c3)C(=O)C2(C)C)cnc1O[C@H]1C[C@@H](C)N(CC(=O)Nc2cccc(NC3CCC(=O)NC3=O)c2)[C@@H](C)C1` (stereo partly drawn) [Cmpd 95, 2-((2R,4r,6S)-4-((5-(3-(4-cyano-3-(trifluoromethyl)phenyl)-5,5-dimethyl-4-oxo-2-thioxoimidazolidin-1-yl)-3-ethylpyridin-2-yl)oxy)-2,6-dimethylpiperidin-1-yl)-N-(3-((2,6-dioxopiperidin-3-yl)amino)phenyl)acetamide], the “Y (lowest measured AR level normalized to DMSO control)” value is recorded as “** (25%<Y<=35%)”. Besides, under “read-out: DC50”, the DC50 was 500 to 1000 nM.

For `CCc1cc(N2C(=S)N(c3cnc(C#N)c(C(F)(F)F)c3)C(=O)C2(C)C)ccc1OCC[C@H]1C[C@H]2CC[C@@H](C1)N2CC(=O)Nc1cc(Cl)cc(NC2CCC(=O)NC2=O)c1` (stereo partly drawn) [Cmpd 63, N-(3-chloro-5-(2,6-dioxopiperidin-3-ylamino)phenyl)-2-((1R,3r,5S)-3-(2-(4-(3-(6-cyano-5-(trifluoromethyl)pyridin-3-yl)-5,5-dimethyl-4-oxo-2-thioxoimidazolidin-1-yl)-2-ethylphenoxy)ethyl)-8-azabicyclo[3.2.1]octan-8-yl)acetamide], the “Y (lowest measured AR level normalized to DMSO control)” value is “** (25%<Y<=35%)” and the DC50 is under 100 nM.

On to `CC1(C)C(=O)N(c2ccc(C#N)c(C(F)(F)F)c2)C(=S)N1c1ccc(OCC2CCN(CC(=O)Nc3cc(Cl)cc(NC4CCC(=O)NC4=O)c3)CC2)c(Cl)c1` (stereo not drawn) [Cmpd 9, 2-(4-((2-chloro-4-(3-(4-cyano-3-(trifluoromethyl)phenyl)-5,5-dimethyl-4-oxo-2-thioxoimidazolidin-1-yl)phenoxy)methyl)piperidin-1-yl)-N-(3-chloro-5-(2,6-dioxopiperidin-3-ylamino)phenyl)acetamide], for which the “Y (lowest measured AR level normalized to DMSO control)” value is reported as “*** (35%<Y<50%)”. Besides, under “read-out: DC50”, the DC50 is 500 to 1000 nM.

`CC1(C)C(=O)N(c2ccc(C#N)c(C(F)(F)F)c2)C(=S)N1c1ccc(OCCC2CCN(CC(=O)Nc3cc(Cl)cc(NC4CCC(=O)NC4=O)c3)CC2)c(Cl)c1` (stereo not drawn) [Cmpd 8, 2-(4-(2-(2-chloro-4-(3-(4-cyano-3-(trifluoromethyl)phenyl)-5,5-dimethyl-4-oxo-2-thioxoimidazolidin-1-yl)phenoxy)ethyl)piperidin-1-yl)-N-(3-chloro-5-(2,6-dioxopiperidin-3-ylamino)phenyl)acetamide]: the “Y (lowest measured AR level normalized to DMSO control)” value was “* (0<Y<=25%)”. The DC50 (read-out: DC50) was in the range of 100 to 500 nM.

On to `CCc1cc(N2C(=S)N(c3cnc(C#N)c(C(F)(F)F)c3)C(=O)C23CCC3)ccc1OCCC1CCN(CC(=O)Nc2cccc(NC3CCC(=O)NC3=O)c2)CC1` (stereo not drawn) [Cmpd 29, 2-(4-(2-(4-(7-(6-cyano-5-(trifluoromethyl)pyridin-3-yl)-8-oxo-6-thioxo-5,7-diazaspiro[3.4]octan-5-yl)-2-ethylphenoxy)ethyl)piperidin-1-yl)-N-(3-(2,6-dioxopiperidin-3-ylamino)phenyl)acetamide], for which the “Y (lowest measured AR level normalized to DMSO control)” value is given as “* (0<Y<=25%)”. Also, for the setting “read-out: DC50”, the half-maximal degradation concentration (DC50) was under 100 nM.

As for `CCc1cc(N2C(=S)N(c3ccc(C#N)c(C(F)(F)F)c3)C(=O)C2(C)C)ccc1OCCC1CCN(CC(=O)Nc2cc(Cl)cc(NC3CCC(=O)NC3=O)c2)CC1` (stereo not drawn) [Cmpd 20, N-(3-chloro-5-(2,6-dioxopiperidin-3-ylamino)phenyl)-2-(4-(2-(4-(3-(4-cyano-3-(trifluoromethyl)phenyl)-5,5-dimethyl-4-oxo-2-thioxoimidazolidin-1-yl)-2-ethylphenoxy)ethyl)piperidin-1-yl)acetamide], the “Y (lowest measured AR level normalized to DMSO control)” value is “* (0<Y<=25%)”. Moreover, under “read-out: DC50”, the DC50 is under 100 nM.

Regarding `CC1(C)C(=O)N(c2ccc(C#N)c(C(F)(F)F)c2)C(=S)N1c1ccc(OC2CCN(CC(=O)Nc3cccc(NC4CCC(=O)NC4=O)c3)CC2)c(F)c1` (stereo not drawn) [Cmpd 1, 2-(4-(4-(3-(4-cyano-3-(trifluoromethyl)phenyl)-5,5-dimethyl-4-oxo-2-thioxoimidazolidin-1-yl)-2-fluorophenoxy)piperidin-1-yl)-N-(3-(2,6-dioxopiperidin-3-ylamino)phenyl)acetamide], the “Y (lowest measured AR level normalized to DMSO control)” value is on record as “** (25%<Y<=35%)”. Moreover, the DC50 (read-out: DC50) is under 100 nM.

`CC1(C)C(=O)N(c2cnc(C#N)c(C(F)(F)F)c2)C(=S)N1c1ccc(OCC2CCN(CC(=O)Nc3cccc(NC4CCC(=O)NC4=O)c3)CC2)cc1` (stereo not drawn) [Cmpd 6, 2-(4-((4-(3-(6-cyano-5-(trifluoromethyl)pyridin-3-yl)-5,5-dimethyl-4-oxo-2-thioxoimidazolidin-1-yl)phenoxy)methyl)piperidin-1-yl)-N-(3-(2,6-dioxopiperidin-3-ylamino)phenyl)acetamide]: the “Y (lowest measured AR level normalized to DMSO control)” value is listed as “** (25%<Y<=35%)”. In addition, the 50% degradation concentration (DC50) (read-out: DC50) is 100 to 500 nM.

As to `CCc1cc(N2C(=S)N(c3cnc(C#N)c(C(F)(F)F)c3)C(=O)C2(C)C)ccc1OCCC1CCN([C@H](C)C(=O)Nc2cc(C#N)cc(NC3CCC(=O)NC3=O)c2)CC1` (stereo partly drawn) [Cmpd 38, (2R)-N-(3-cyano-5-(2,6-dioxopiperidin-3-ylamino)phenyl)-2-(4-(2-(4-(3-(6-cyano-5-(trifluoromethyl)pyridin-3-yl)-5,5-dimethyl-4-oxo-2-thioxoimidazolidin-1-yl)-2-ethylphenoxy)ethyl)piperidin-1-yl)propanamide], the “Y (lowest measured AR level normalized to DMSO control)” value is listed as “** (25%<Y<=35%)”. Further, under “read-out: DC50”, the half-maximal degradation concentration (DC50) is under 100 nM.

As for `CCc1cc(N2C(=S)N(c3cnc(C#N)c(C(F)(F)F)c3)C(=O)C2(C)C)ccc1OCCC1CCN(CC(=O)Nc2cc(F)cc(NC3CCC(=O)NC3=O)c2)CC1` (stereo not drawn) [Cmpd 16, 2-(4-(2-(4-(3-(6-cyano-5-(trifluoromethyl)pyridin-3-yl)-5,5-dimethyl-4-oxo-2-thioxoimidazolidin-1-yl)-2-ethylphenoxy)ethyl)piperidin-1-yl)-N-(3-(2,6-dioxopiperidin-3-ylamino)-5-fluorophenyl)acetamide], the “Y (lowest measured AR level normalized to DMSO control)” value was “* (0<Y<=25%)”. Besides, the DC50 (read-out: DC50) was under 100 nM.

Take `CCc1cc(N2C(=S)N(c3cnc(C#N)c(C(F)(F)F)c3)C(=O)C23CCC3)ccc1OCCC1CCN([C@H](C)C(=O)Nc2cccc(NC3CCC(=O)NC3=O)c2)CC1` (stereo partly drawn) [Cmpd 84, (2R)-2-(4-(2-(4-(7-(6-cyano-5-(trifluoromethyl)pyridin-3-yl)-8-oxo-6-thioxo-5,7-diazaspiro[3.4]octan-5-yl)-2-ethylphenoxy)ethyl)piperidin-1-yl)-N-(3-(2,6-dioxopiperidin-3-ylamino)phenyl)propanamide]: the “Y (lowest measured AR level normalized to DMSO control)” value is recorded as “* (0<Y<=25%)”. The 50% degradation concentration (DC50) (read-out: DC50) was under 100 nM.

These data come from US11325889B2, “Substituted 3-((3-aminophenyl)amino)piperidine-2,6-dione compounds, compositions thereof, and methods of treatment therewith” (Celgene Corporation, priority 2018, dated 2022).
